Laboratory results as given in PubChem BioAssay (NCI).
“And” between values parts separate entries of the source, which are not always exact repeats. Equal values may be shown once.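 A five-concentration, 48-hour dose response in 96-well plates underlies each endpoint, interpolated linearly between surrounding concentrations. Here, GI50 denotes the concentration required for 50% inhibition of growth. TGI: concentration producing complete growth inhibition.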

Assays:
Test in all cases: NCI-60 cell line screen, 48 h
[1] = test system: SR leukemia
[2] = test system: MALME-3M melanoma
[3] = test system: SF-295 CNS
[4] = test system: NCI-H23 lung
[5] = test system: RXF 393 renal
[6] = test system: UACC-257 melanoma
[7] = test system: OVCAR-8 ovarian
[8] = test system: A498 renal
[9] = test system: UACC-62 melanoma
[10] = test system: BT-549 breast

| Structure (SMILES) | GI50 [1] | TGI [1] | GI50 [2] | TGI [2] | GI50 [3] | TGI [3] | GI50 [4] | TGI [4] | GI50 [5] | TGI [5] | GI50 [6] | TGI [6] | GI50 [7] | TGI [7] | GI50 [8] | TGI [8] | GI50 [9] | TGI [9] | GI50 [10] | TGI [10] |
| --- | --- | --- | --- | --- | --- | --- | --- | --- | --- | --- | --- | --- | --- | --- | --- | --- | --- | --- | --- | --- |
| Cc1nc2sc(C(=O)Nc3cccc(Cl)c3C)c(N)c2cc1C(C)O (stereo unspecified) | 0.0418 µM | > 51.7 µM | 1.11 µM | 37.5 µM | 0.119 µM | > 41.6 µM | 0.567 µM | > 56.6 µM | 0.189 µM | 18.1 µM | 20.2 µM | > 51.6 µM | 0.396 µM | > 71.7 µM | 0.0173 µM | 0.544 µM | 0.0852 µM | 44.9 µM | 0.475 µM | > 32.3 µM |
| O=[N+]([O-])c1ccc(NC(=S)N/N=C(\c2ccccc2)c2ccccn2)cc1 | 0.0286 µM | 2.98 µM and > 27.4 µM |  | 3.52 µM | 1.87 µM | 3.5 µM and 2.98 µM | 1.71 µM | 3.53 µM and 13.3 µM |  | 2.83 µM and 3.06 µM | 0.0225 µM | 2.06 µM and 3.26 µM | 0.0275 µM | 1.06 µM and 1.42 µM | 1.41 µM | 2.71 µM and 3.21 µM | 3.4 µM | 2.92 µM |  | 3.01 µM |
| COc1cc(N=Nc2cccc(S(N)(=O)=O)c2)c2ccccc2c1N |  | 35.8 µM |  | 3.13 µM |  | 26.6 µM |  | 6.72 µM |  | 33.6 µM |  | 3.37 µM |  | 56 µM |  | 34.7 µM |  | 4.19 µM |  | 20.7 µM |
| O=C(Nc1cccc([N+](=O)[O-])c1)c1cc2ccccc2cc1O | 1.46 µM | 8.17 µM | 0.376 µM | 2.26 µM | 1.96 µM | 5.33 µM | 0.72 µM | 3.65 µM | 2.57 µM | 9.05 µM | 0.881 µM | 5.23 µM | 3.31 µM | 26.1 µM | 1.41 µM | 6.19 µM | 0.685 µM |  | 1.55 µM | 5.39 µM |
| CN1N=Nc2c(C(F)(F)F)nn(-c3ccccc3)c2N(C)C1=O | > 100 µM | > 100 µM | > 100 µM | > 100 µM | > 100 µM | > 100 µM | > 100 µM | > 100 µM |  | > 100 µM | > 100 µM | > 100 µM |  | > 100 µM | > 100 µM | > 100 µM | > 100 µM | > 100 µM | > 100 µM | > 100 µM |
| Cc1cc(Cl)ccc1NC(=O)NC(C)(C)COC(=O)Nc1cccc(Cl)c1 | 8.31 µM | > 100 µM | 9.6 µM | 50.3 µM | 0.945 µM | 8.31 µM | 3.66 µM | 28.4 µM | 17.5 µM | 78.6 µM | 8.23 µM | 42.5 µM | 5.42 µM | 64.8 µM | 2.82 µM | 21.8 µM | 4.73 µM | > 100 µM | 21.4 µM | > 100 µM |
| N#Cc1ncc(N2C(=O)C3(CCC3)N(c3ccc(OC4CCNCC4)nc3)C2=S)cc1C(F)(F)F | 3.37 µM | 21.1 µM | 13.2 µM | 27.6 µM | 16.1 µM | 31.5 µM | 13.9 µM | 32.1 µM | 12.1 µM | 25.8 µM | 12.1 µM | 25.8 µM | 25.1 µM | 76.2 µM | 12.2 µM | 32.7 µM | 15.9 µM | 31.5 µM | 12.9 µM | 26 µM |
| Cc1c(N)nc(C(CC(N)=O)NCC(N)C(N)=O)nc1C(=O)NC(C(=O)NC(C)C(O)C(C)C(=O)NC(C(=O)NCCc1nc(-c2nc(C(=O)NCCCNCCCCN)cs2)cs1)C(C)O)C(OC1OC(CO)C(O)C(O)C1OC1OC(CO)C(O)C(OC(N)=O)C1O)c1cnc[nH]1 (stereo unspecified) | 0.0139 µg/mL | 0.287 µg/mL |  | > 10 µM | 0.603 µg/mL and 0.261 µg/mL | 12 µg/mL and 4.04 µM | 0.251 µg/mL | 11.1 µg/mL and > 10 µM |  | 3.45 µM | 86.1 µg/mL | > 10 µM | 2.1 µg/mL and 1.04 µg/mL | 9.85 µg/mL and 25.1 µg/mL and > 10 µM | 18.5 µg/mL | > 10 µM | 0.605 µg/mL and 0.744 µg/mL | 25.6 µg/mL and > 10 µM | 13.7 µg/mL |  |
| O=c1oc2cc(OS(=O)(=O)c3ccccc3)ccc2c2c1CCCCC2 | 3.01 µM | > 100 µM | 29.4 µM | > 100 µM | > 100 µM | > 100 µM | 7.27 µM | > 100 µM | 4.55 µM | > 100 µM | 7.31 µM | > 100 µM | 86.1 µM | > 100 µM | > 100 µM | > 100 µM | 4.73 µM | > 100 µM | 5.44 µM | > 100 µM |
| Cc1[nH]n(-c2ccccc2)c(=O)c1C(=O)c1ccccc1 | > 21 µM | > 25 µM | > 25 µM | > 25 µM | > 25 µM | > 25 µM | > 25 µM | > 25 µM | > 25 µM | > 25 µM | > 25 µM | > 25 µM | > 25 µM | > 25 µM | > 6.04 µM | > 25 µM | > 25 µM | > 25 µM | > 25 µM | > 25 µM |
| C[C@H]1CC2=CC(=O)CC[C@]2(C)[C@H]2CC[C@@]3(C)[C@@H](CC[C@]3(C)O)[C@H]12 | 21.7 µM | 55.5 µM | 26 µM | > 92.4 µM | 21.4 µM | 62.5 µM | 38.2 µM | > 100 µM | 24.8 µM | 76.9 µM | 35.4 µM | > 94.1 µM | 34 µM | > 100 µM | 28.2 µM | > 82.8 µM | 22.2 µM | > 67 µM | 24.7 µM | 71.9 µM |
| COc1ccc(/C=C/c2cnc3ccccc3n2)cc1OC |  | > 100 µM |  | > 100 µM |  | > 100 µM |  | > 100 µM |  | > 100 µM |  | > 100 µM |  | > 100 µM |  | > 100 µM |  | > 100 µM |  | > 100 µM |
| N#Cc1ccc2c(c1)C(=O)c1c-2n(CCCN=[N+]=[N-])c(=O)c2cc([N+](=O)[O-])ccc12 | 0.373 µM | 4.82 µM | > 50 µM | > 50 µM | 8 µM | > 50 µM | 49.5 µM | > 50 µM | > 50 µM | > 50 µM | > 50 µM | > 50 µM | > 50 µM | > 50 µM | > 50 µM | > 50 µM | 3.6 µM | > 50 µM | 5.49 µM | > 50 µM |
| COc1cccc2ccc3c(c12)C(=O)OC31CCc2c(C)cccc21 (stereo unspecified) |  | 18.4 µM |  | > 46.4 µM |  | > 46.4 µM |  | > 46.4 µM |  | 44.6 µM |  | > 100 µM |  | > 46.4 µM |  | 22.7 µM |  | > 46.4 µM |  | > 100 µM |
| CC(C)(F)C[C@H](N[C@@H](c1ccc(-c2ccc(S(C)(=O)=O)cc2)cc1)C(F)(F)F)C(=O)NC1(C#N)CC1 | 93.1 µM | > 100 µM | 17.5 µM and 22.2 µM | 55 µM and 62 µM | 18.8 µM and 17.9 µM | 55 µM and 50.9 µM | 28.5 µM and 39.9 µM | 55 µM and > 100 µM | 7.14 µM and 20.5 µM | 18 µM and 45.2 µM | > 55 µM and 61.8 µM | > 100 µM | 18 µM and 19.5 µM | 55 µM and 63.8 µM | 33.6 µM and 28 µM | 55 µM and > 100 µM | 27.3 µM and 51.9 µM | 55 µM and > 100 µM | 8.65 µM and 28.2 µM | 55 µM and 82.8 µM |
